Measured values taken from US10955421B2, “Detection of membrane proteins” (Oxford University Innovation Limited, priority 2017, dated 2021).

Assays:
[1] = target: T1, NTR1 (Rattus norvegicus, UniProt P20789); assay: Detergent screening by neurotensin-binding assay (BODIPY-NT8-13); details: BODIPY-NT8-13 bound to NTR1 in detergent extract, room temperature, 1 hr (FIG. 1C)
Protocol: (§1) The gene fragment of rat NTR1 (wild-type, 1-424) with exogenous c-terminal Flag- and His-tag was constructed into modified pHLsec vector for transient protein overexpression. Plasmids were transfected into HEK293T cells via a liposome-based method with Lipofectamine 2000 transfection reagent and the cells were harvested 24 hrs after transfection for further experiments.
Protein extract from HEK293T cells with NTR1 overexpression was incubated with BODIPY-labelled neurotensin 8-13 (BODIPY-NT8-13) at room temperature for 1 hr. The unbound BODIPY-NT8-13 was removed by Bio-Spin size exclusion spin column (Bio-rad) and the fluorescent signal of BODIPY-NT8-13 bound to receptor was detected by fluorescence microplate reader.
Various detergents were assessed for their ability to preserve the conformation and activity of NTR1. The detergents assessed were: (1) n-dodecyl-β-D-maltoside (DDM); (2) n-undecyl-β-D-maltoside (UDM); (3) n-nonyl-β-D-glucopyranoside (NG); (4) n-octyl-β-D-glucopyranoside (OG); (5) octyl glucose neopentyl glycol (OGNG); (6) n-octyl-β-D-thioglucopyranoside (OTG); (7) tetraethylene glycol monooctyl ether (C8E4); (8) hexaethylene glycol monodecyl ether (C10E6); (9) polyethylene glycol tert-octylphenyl ether (Triton X-100); (10) lauryldimethylamine-N-oxide (LDAO); and (11) hexadecylphosphocholine (Fos-Choline-16).

[2] = target: T1, NTR1; assay: Detergent screening by western blotting (receptor aggregation); details: NTR1 solubilised from HEK293T cells in 1% detergent; compared with the other detergents tested (FIGS. 1A and B)
Protocol: as §1
HEK293T cells with NTR1 overexpression were lysed in lysis buffer (100 mM sodium phosphate, pH 7.2, 150 mM NaCl, 10% glycerol, 1× EDTA-free protease inhibitor cocktail from Roche) containing 1% various detergents for screening. Cell lysate was harvested after pelleting down the debris by centrifugation, and protein concentration was measured by Pierce 660 nm protein assay reagent (Pierce). Equal amounts of protein extract in different detergents were applied for western blotting to detect NTR1 by using an anti-His tag antibody. Semi-quantification was performed by Gel-pro software to quantify the protein amount and relative ratio of protein aggregation.
Various detergents were assessed for their ability to preserve the conformation and activity of NTR1. […]

[3] = tested on: human P2Y1 purinergic receptor (P2Y1R); assay: Native mass spectrometry of P2Y1R ligand binding in Fos-Choline-16
Protocol: P2Y1R and P2Y1R-MRS2500 complex were prepared as described in Zhang et al., Nature, 2015, 520, 317.
(§2) Purified GPCRs were buffer exchanged into 50-200 mM ammonium acetate containing Fos-Choline detergents at 2 times critical micelle concentration (CMC) by using Bio-Spin size exclusion spin column (Bio-rad) prior to mass spectrometer analysis. Detergent exchange could be also performed by size exclusion chromatography equipped with FPLC system. Protein samples were fractionized by the size exclusion columns equilibrated with 50-200 mM ammonium acetate containing Fos-choline detergents at 2 times CMC, and the protein fractions were collected and concentrated by centrifugation-based protein concentrators Vivaspin.
The measurement of GPCRs was performed on a modified Synapt G1 (Waters) or a modified Q-Exactive (Thermo) mass spectrometer. The data in Examples 2 and 4 were obtained using a Q-Exactive mass spectrometer, whereas the data in Example 3 were obtained using a Synapt G1 mass spectrometer.
The Q-Exactive mass spectrometer was set up according to Gault et al. (Nat. Methods 13, 333-336, 2016). Briefly, a gentle voltage gradient was applied (injection flatapole, inter flatapole, bent flatapole, transfer multipole: 7.9, 6.94, 5.9, 4 V respectively). The acceleration voltage applied in HCD cell was optimized for GPCRs (60-150 V) to remove the detergent micelles from protein ions. Spectra were acquired with ten microscans and the noise level parameter of 3 was applied. Backing pressure was maintained at 1.05-1.3×10^−9 mBar to allow better transmission of GPCR ions.
High-resolution MS was used to probe the drug/ligand interactions of human P2Y1R purified from insect cells. By controlled application of collisional activation, intact P2Y1R was liberated from its detergent micelle, preserving the non-covalent interactions formed in solution. The phosphate-containing detergent of Example 1 (Fos-16) was used in these experiments.

[4] = target: T1, NTR1; assay: Native mass spectrometry of PIP2 binding to NTR1 in Fos-Choline-16; details: after incubation of PIP2 and NTR1 in Fos-Choline-16 (FIG. 6A)
Protocol: as §2
PIP2 powder (Avanti) was dissolved into solvent containing chloroform, methanol and H2O with volume ratio of 20:9:1. The aliquoted PIP2 solution was dried out by gas-assisted evaporation and re-suspended into 50-200 mM ammonium acetate containing 0.00106% Fos-Choline-16, followed by sonication in water bath for 30 mins.
The measurement of GPCRs was performed on a modified Synapt G1 (Waters) or a modified Q-Exactive (Thermo) mass spectrometer. The data in Examples 2 and 4 were obtained using a Q-Exactive mass spectrometer, whereas the data in Example 3 were obtained using a Synapt G1 mass spectrometer. […]

[5] = 1:0.5 molar ratio of protein to ATP (FIG. 3B)
[6] = endogenous nucleotide, purified P2Y1R, UniDec deconvolution (FIG. 2A)

T1 sequence (P20789 whole entry, the tested form may be a part): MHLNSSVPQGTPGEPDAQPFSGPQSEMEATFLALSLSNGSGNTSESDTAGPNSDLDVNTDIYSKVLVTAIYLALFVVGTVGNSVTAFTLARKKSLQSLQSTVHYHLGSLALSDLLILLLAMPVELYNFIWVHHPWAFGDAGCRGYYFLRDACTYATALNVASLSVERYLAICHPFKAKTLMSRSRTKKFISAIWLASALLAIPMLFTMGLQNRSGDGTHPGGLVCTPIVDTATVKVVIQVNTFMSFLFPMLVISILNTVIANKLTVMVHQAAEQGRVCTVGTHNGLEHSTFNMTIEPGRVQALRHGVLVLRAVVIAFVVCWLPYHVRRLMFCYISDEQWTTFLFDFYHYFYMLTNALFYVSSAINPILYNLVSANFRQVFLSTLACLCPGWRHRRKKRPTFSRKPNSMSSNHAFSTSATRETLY

Q: How did the ligand binding activity [1] turn out when `CCCCCCCCCCCCCCCCOP(=O)([O-])OCC[N+](C)(C)C` [Fos-Choline-16, n-hexadecylphosphocholine] was run?
A: substantially preserved

Q: And the “receptor aggregation and oligomerisation” value [2]?
A: less receptor aggregation and oligomerisation

Q: `CNc1nc(I)nc2c1ncn2[C@H]1C[C@H](OP(=O)(O)O)[C@]2(COP(=O)(O)O)C[C@H]12` [MRS2500, (1′R2′S,4′S,5′S)-4-(2-iodo-6-methylamino-purine-9-yl)-1-[(phosphato)methyl] 2(phosphato)bicycle[3.1.0]-hexane] was tested. Which “ADP binding in the presence of the drug” value ([3]; P2Y1R purified in the presence of MRS2500) did it give?
A: No ADP binding was detected

Q: What about the “percentage of interaction with P2Y1R” value ([3]; P2Y1R purified in the presence of MRS2500 (FIG. 2B)) of the same molecule?
A: 100 percentage

Q: `Nc1ncnc2c1ncn2[C@@H]1O[C@H](COP(=O)(O)OP(=O)(O)OP(=O)(O)O)[C@@H](O)[C@H]1O` [ATP, adenosine 5′-triphosphate] was tested. Which “ADP-bound receptor converted into the ATP bound state” value [3, 5] did it give?
A: ~30%

Q: What about the “apo receptor converted into the ATP bound state” value [3, 5] of the same molecule?
A: around 80%

Q: What about the “displacement of MRS2500 from the P2Y1R-MRS2500 complex” value ([3]; 1:2 molar P2Y1R:ATP, 30 min incubation at 37° C. (FIG. 4)) of the same molecule?
A: complete displacement of MRS2500

Q: And the “further decrease of ADP binding” value ([3]; 2 molar excess of ATP (FIG. 3C))?
A: 40%

Q: And the “ATP-binding ratio of phosphorylated P2Y1R” value [3, 6]?
A: 39.6%

Q: What about the “ATP-binding ratio of receptor without phosphorylation” value [3, 6] of the same molecule?
A: 41.5%

Q: PIP2 was tested. Which “PIP2 binding of NTR1” value [4] did it give?
A: Multiple binding
